Laboratory results as given in patent US20050256181A1, “Treating a viral disorder” (ELIXIR PHARMACEUTICALS, INC., priority 2004, published 2005).

The molecules below were run against T1, SirT1 (Homo sapiens, UniProt Q96EB6) (assay: SirT1 p53-382 enzymatic deacetylation assay (fluorogenic Fluor-de-Lys principle)).
T1 sequence (Q96EB6 1-747): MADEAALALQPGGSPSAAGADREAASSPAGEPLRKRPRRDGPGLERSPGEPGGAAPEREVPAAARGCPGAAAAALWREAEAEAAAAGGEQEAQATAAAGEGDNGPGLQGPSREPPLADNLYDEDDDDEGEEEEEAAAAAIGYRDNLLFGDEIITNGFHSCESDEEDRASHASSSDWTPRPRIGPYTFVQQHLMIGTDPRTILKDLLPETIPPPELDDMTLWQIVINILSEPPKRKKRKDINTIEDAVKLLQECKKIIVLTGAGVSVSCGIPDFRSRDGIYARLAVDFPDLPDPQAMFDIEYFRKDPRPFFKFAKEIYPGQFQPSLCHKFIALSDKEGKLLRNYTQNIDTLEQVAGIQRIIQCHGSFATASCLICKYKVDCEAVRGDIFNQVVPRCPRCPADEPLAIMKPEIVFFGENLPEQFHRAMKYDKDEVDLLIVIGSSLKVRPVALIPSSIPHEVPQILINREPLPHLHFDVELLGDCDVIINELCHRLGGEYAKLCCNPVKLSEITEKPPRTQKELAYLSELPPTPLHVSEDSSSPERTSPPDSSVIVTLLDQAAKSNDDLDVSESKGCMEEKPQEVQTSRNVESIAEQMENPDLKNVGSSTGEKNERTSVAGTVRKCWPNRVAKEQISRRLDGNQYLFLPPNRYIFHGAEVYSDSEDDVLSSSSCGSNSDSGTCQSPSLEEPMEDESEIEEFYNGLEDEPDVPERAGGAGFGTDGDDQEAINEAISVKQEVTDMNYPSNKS
Format: biochemical
Text: An exemplary assay method includes a 1536 well format of the SirT1 enzymatic assay that is based on the commercial “Fluor-de-Lys” assay principle by Biomol, which is fluorogenic (www.biomol.com/store/Product_Data_PDFs/ak500.pdf). In this assay, deacetylation of the e-amino function of a lysyl residue is coupled to a fluorogenic “development step that is dependent on the unblocked e-amino functionality and generates fluorescent aminomethylcoumarin. Fluorescence can be read on a commercial macroscopic reader.

Row | IC50 [µM] | Structure (SMILES)
1 | > 10 | NC(=O)C1CCc2c([nH]c3ccc(Cl)cc23)C1 (centres unmarked) [Compound 9, 6-Chloro-2,3,4,9-tetrahydro-1H-carbazole-2-carboxylic acid amide]
2 | 1 to 10 | NC(=O)C1CCc2c([nH]c3ccc(Br)cc23)C1 (centres unmarked) [Compound 3, 6-Bromo-2,3,4,9-tetrahydro-1H-carbazole-2-carboxylic acid amide]
3 | 1 to 10 | NC(=O)C1CCc2c1[nH]c1ccccc21 (centres unmarked) [Compound 10, 1,2,3,4-Tetrahydro-cyclopenta[b]indole-3-carboxylic acid amide]
4 | > 10 | NC(=O)C1Cc2c([nH]c3ccccc23)CN1 (centres unmarked) [Compound 2, 2,3,4,9-Tetrahydro-1H-b-carboline-3-carboxylic acid amide]
5 | < 1 | NC(=O)C1CCc2c1[nH]c1ccc(Cl)cc21 (centres unmarked) [Compound 1, 7-Chloro-1,2,3,4-tetrahydro-cyclopenta[b]indole-3-carboxylic acid amide]
6 | 1 to 10 | O=C(Nc1ccc(Cl)cn1)C1CCCc2c1[nH]c1ccc(Cl)cc21 (centres unmarked) [Compound 11, 6-Chloro-2,3,4,9-tetrahydro-1H-carbazole-1-carboxylic acid (5-chloro-pyridin-2-yl)-amide]
7 | > 10 | NC(=O)C1CCc2c([nH]c3ccc(OC(F)(F)F)cc23)C1 (centres unmarked) [Compound 13, 6-Trifluoromethoxy-2,3,4,9-tetrahydro-1H-carbazole-2-carboxylic acid amide]
8 | > 10 | Cc1ccc2[nH]c3c(c2c1)CCCC3(C)C(N)=O (centres unmarked) [Compound 12, 1,6-Dimethyl-2,3,4,9-tetrahydro-1H-carbazole-1-carboxylic acid amide]
